# Like-named read-outs stand apart in the source and are kept apart here.
# What was measured:
# 5-HT2B (h) = molecular target: T1, 5-HT2B (h) (Homo sapiens, UniProt P41595); test: Radioligand binding; conditions: control compound
# T1 construct: Cerep (contract screening)
# Experimental: (§1) The study was carried out by Cerep (Celle l'Evescault, France). An in vitro pharmacological profiling panel was designed to detect potential high-risk clinical adverse drug reactions. The panel comprised of 54 targets.
# (§2) The specific ligand binding to the receptors was defined as the difference between the total binding and the non-specific binding determined in the presence of an excess of unlabelled ligand. Results were expressed as a per cent of control specific binding and as a per cent inhibition of control specific obtained in the presence of the test compounds. Results showing an inhibition (or stimulation) >50% were considered to represent significant effects of the test compounds. […] The IC50 values were determined by non-linear regression analysis of the competition curves generated with mean replicate values using Hill equation curve fitting. The inhibition constants (Ki) were calculated using the Cheng Prusoff equation.
# [1] = molecular target: Ca2+ channel (L, verapamil site); test: Radioligand binding; conditions: control compound
# Experimental: as §1, §2
# [2] = In vitro metabolism in liver microsomes; conditions: Mouse
# [3] = In vitro metabolism in liver microsomes; conditions: Human
# P. falciparum strain Dd2 = test: Growth inhibition assay, asexual blood stages; type: cell-based, Plasmodium falciparum
# [4] = In vitro metabolism in liver microsomes; conditions: Dog
# [5] = In vitro metabolism in liver microsomes; conditions: Monkey
# [6] = In vitro metabolism in liver microsomes; conditions: Rat
# Plasmodium berghei = test: Rodent malaria model; type: in vivo; conditions: P. berghei, 50 mg kg-1 i.p. 1x4 days
# Experimental: This was the case for both an in vivo 4 day dosing regimen of 30 mg kg^−1 per day and an ex vivo one-cycle growth inhibition assay. […] Differential therapeutic efficacy in various rodent model systems is a well-established phenomenon and is typically associated with charged compounds, such as positively charged amidines and negatively charged phosphoric acid or carboxylic acid containing drugs. The phenomenon is explained based on selective uptake of charged compounds through parasite-induced channels, termed new permeation pathways, in the host cell plasma membrane and species-specific characteristics of the new permeation pathways.
# CACO 2 cells = test: Permeability assay; type: in vitro ADME; conditions: Supplementary Table 2
# Experimental: The study was conducted by Cyprotex (Macclesfield, United Kingdom). CACO 2 cells (Sigma-Aldrich, catalogue: 86010202) were seeded on Millipore Millicell plates and formed a confluent monolayer over 20 days before the experiment. On day 20, the tested compounds at a final concentration of 10 μM were added to the apical side of the membrane. The transport of the compound across the monolayer was monitored over a 2 h period by liquid chromatography (LC)–MS/MS quantification. The permeability coefficient (Papp) was calculated from the following equation: [drawing 1] , where dQ/dt is the rate of permeation of the drug across the cells, C0 the donor compartment concentration at time zero and A the area of the cell monolayer. C0 was obtained from analysis of the dosing solution at the start of the experiment.
# Solubility in water = conditions: Supplementary Table 2
# TP (h) (TXA2/PGH2) = molecular target: T2, TP (h) (TXA2/PGH2) (Homo sapiens, UniProt P21731); test: Radioligand binding; conditions: control compound
# T2 construct: Cerep
# T2 sequence (P21731 1-343): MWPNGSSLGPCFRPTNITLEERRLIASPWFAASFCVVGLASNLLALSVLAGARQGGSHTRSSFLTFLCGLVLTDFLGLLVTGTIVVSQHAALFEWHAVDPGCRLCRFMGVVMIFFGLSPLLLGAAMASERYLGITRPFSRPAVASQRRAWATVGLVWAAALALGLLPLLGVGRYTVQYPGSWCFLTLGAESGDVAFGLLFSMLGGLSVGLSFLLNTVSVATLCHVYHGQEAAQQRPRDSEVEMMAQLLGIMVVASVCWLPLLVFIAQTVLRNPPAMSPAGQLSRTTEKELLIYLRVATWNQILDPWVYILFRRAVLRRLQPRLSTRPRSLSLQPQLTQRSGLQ
# a1 (non-selective) = test: Radioligand binding; conditions: control compound
# Experimental: as §1, §2
# Na+ channel (site 2) = test: Radioligand binding; conditions: control compound
# a2 (non-selective) = test: Radioligand binding; conditions: control compound
# Experimental: as §1, §2
# CXCR2 (IL-8B) (h) = molecular target: T3, CXCR2 (IL-8B) (h) (Homo sapiens, UniProt P25025); test: Radioligand binding; conditions: control compound
# T3 construct: Cerep
# T3 sequence (P25025 1-360): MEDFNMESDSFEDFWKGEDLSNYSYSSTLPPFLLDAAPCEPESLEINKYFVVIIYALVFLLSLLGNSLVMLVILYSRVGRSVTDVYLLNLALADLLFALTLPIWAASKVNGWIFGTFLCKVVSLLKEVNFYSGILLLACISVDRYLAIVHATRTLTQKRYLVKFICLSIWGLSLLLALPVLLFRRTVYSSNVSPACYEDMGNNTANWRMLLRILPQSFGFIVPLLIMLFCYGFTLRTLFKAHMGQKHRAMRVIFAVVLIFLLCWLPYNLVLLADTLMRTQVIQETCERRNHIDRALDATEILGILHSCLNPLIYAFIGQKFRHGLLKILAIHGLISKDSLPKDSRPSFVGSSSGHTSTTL
# CCR1 (h) = molecular target: T4, CCR1 (h) (Homo sapiens, UniProt P32246); test: Radioligand binding; conditions: control compound
# T4 construct: Cerep
# T4 sequence (P32246 1-355): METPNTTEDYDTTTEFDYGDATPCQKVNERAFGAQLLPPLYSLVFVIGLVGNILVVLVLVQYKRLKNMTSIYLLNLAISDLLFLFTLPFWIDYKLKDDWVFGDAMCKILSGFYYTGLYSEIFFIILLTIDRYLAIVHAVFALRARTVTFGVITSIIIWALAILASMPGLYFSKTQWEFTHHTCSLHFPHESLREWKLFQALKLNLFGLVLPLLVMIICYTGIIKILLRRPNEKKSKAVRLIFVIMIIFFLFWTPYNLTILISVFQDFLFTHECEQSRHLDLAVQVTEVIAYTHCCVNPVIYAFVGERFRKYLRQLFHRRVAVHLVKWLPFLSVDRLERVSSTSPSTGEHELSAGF
# sst (non-selective) = test: Radioligand binding; conditions: control compound
# Experimental: as §1, §2
# [7] = read-out: Control specific binding IC50
# [8] = read-out: Control specific binding Ki
# [9] = major metabolite, read-out: IC50, antiplasmodial activity in vitro
# [10] = Supplementary Table 2, read-out: In vitro IC50
# T1 sequence (P41595 whole entry): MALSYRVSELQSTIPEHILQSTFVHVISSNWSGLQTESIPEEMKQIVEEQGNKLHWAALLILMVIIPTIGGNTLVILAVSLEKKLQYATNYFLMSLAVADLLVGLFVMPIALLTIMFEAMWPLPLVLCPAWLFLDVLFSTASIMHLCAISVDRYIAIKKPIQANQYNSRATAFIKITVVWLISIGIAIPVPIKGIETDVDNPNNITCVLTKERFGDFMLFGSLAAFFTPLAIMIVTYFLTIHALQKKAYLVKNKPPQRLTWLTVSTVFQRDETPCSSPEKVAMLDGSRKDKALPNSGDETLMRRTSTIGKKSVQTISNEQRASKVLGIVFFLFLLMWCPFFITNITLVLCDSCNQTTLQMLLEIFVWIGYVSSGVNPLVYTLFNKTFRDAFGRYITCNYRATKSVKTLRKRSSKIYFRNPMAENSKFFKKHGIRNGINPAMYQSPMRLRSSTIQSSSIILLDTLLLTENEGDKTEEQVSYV
molecule,measurement,setting,value
"COc1cc(CC(C)N)c(OC)cc1I (racemic) [(±)DOI, reference compound]",IC50,5-HT2B (h); [7],5.1 nM
same,Ki,5-HT2B (h); [8],4.6 nM
"COc1ccc(CCN(C)CCCC(C#N)(c2cc(OC)c(OC)c(OC)c2)C(C)C)cc1OC (stereo not drawn) [D 600, reference compound]",IC50,[1]; [7],67 nM
same,Ki,[1]; [8],34 nM
N=C(c1cccc(NC(=O)Nc2ccc(S(=O)(=O)NCc3ccc(S(N)(=O)=O)cc3)cc2)c1)N1CCNCC1 [Metabolite 1],Share of metabolite from the total combined metabolite peak area,[2]; SC81458 metabolites,22.2%
same,Share of metabolite from the total combined metabolite peak area,[2]; SC83288 metabolites,5%
same,Share of metabolite from the total combined metabolite peak area,[3]; SC81458 metabolites,7%
same,Share of metabolite from the total combined metabolite peak area,[3]; SC83288 metabolites,13.3%
same,IC50,P. falciparum strain Dd2; [9],65 nM
same,Share of metabolite from the total combined metabolite peak area,[4]; SC81458 metabolites,63.6%
same,Share of metabolite from the total combined metabolite peak area,[4]; SC83288 metabolites,87.3%
same,Share of metabolite from the total combined metabolite peak area,[5]; SC81458 metabolites,10.5%
same,Share of metabolite from the total combined metabolite peak area,[5]; SC83288 metabolites,16.2%
same,Share of metabolite from the total combined metabolite peak area,[6]; SC81458 metabolites,27.8%
same,Share of metabolite from the total combined metabolite peak area,[6]; SC83288 metabolites,19.7%
N=C(N)c1cccc(NC(=O)Nc2ccc(S(=O)(=O)NCc3ccccc3)cc2)c1 [SC08165],Outcome,Plasmodium berghei,inactive
same,Papp,CACO 2 cells,1.22 10-6 cm s-1
same,IC50,P. falciparum strain Dd2; [10],134 nM
N=C(c1cccc(NC(=O)Nc2ccc(S(=O)(=O)NCc3ccc(S(N)(=O)=O)cc3)cc2)c1)N1CCC(O)CC1 [SC77225],Papp,CACO 2 cells,0.38 10-6 cm s-1
same,IC50,P. falciparum strain Dd2; [10],165 nM
CCCCN1CCN(C(=N)c2cccc(NC(=O)Nc3ccc(S(N)(=O)=O)cc3)c2)CC1 [SC81458 M5],Share of metabolite from the total combined metabolite peak area,[2]; SC81458 metabolites,49%
same,Share of metabolite from the total combined metabolite peak area,[3]; SC81458 metabolites,51.4%
same,Share of metabolite from the total combined metabolite peak area,[4]; SC81458 metabolites,3.1%
same,Share of metabolite from the total combined metabolite peak area,[5]; SC81458 metabolites,0.1%
same,Share of metabolite from the total combined metabolite peak area,[6]; SC81458 metabolites,23.3%
C=CNC(=N)c1cccc(NC(=O)Nc2ccc(S(=O)(=O)NCc3ccc(S(N)(=O)=O)cc3)cc2)c1 [SC81458 M30],Share of metabolite from the total combined metabolite peak area,[2]; SC81458 metabolites,1.8%
CCCN1CCN(C(=N)c2cccc(NC(=O)Nc3ccc(S(=O)(=O)NCc4ccc(S(N)(=O)=O)cc4)cc3)c2)CC1 [SC82367],Solubility in H2O,Solubility in water,> 1000 µg/mL
same,Papp,CACO 2 cells,5.40 10-6 cm s-1
same,IC50,P. falciparum strain Dd2; [10],7 nM
CC(C)N1CCN(C(=N)c2cccc(NC(=O)Nc3ccc(S(=O)(=O)NCc4ccc(S(N)(=O)=O)cc4)cc3)c2)CC1 [SC82486],Solubility in H2O,Solubility in water,100 µg/mL
same,Papp,CACO 2 cells,2.50 10-6 cm s-1
same,IC50,P. falciparum strain Dd2; [10],38 nM
N=C(c1cccc(NC(=O)Nc2ccc(S(=O)(=O)NCc3ccc(S(N)(=O)=O)cc3)cc2)c1)N1CCN(C=O)CC1 [SC83288 M8],Share of metabolite from the total combined metabolite peak area,[2]; SC83288 metabolites,0.9%
same,Share of metabolite from the total combined metabolite peak area,[3]; SC83288 metabolites,0.1%
same,Share of metabolite from the total combined metabolite peak area,[4]; SC83288 metabolites,0.5%
same,Share of metabolite from the total combined metabolite peak area,[5]; SC83288 metabolites,0.2%
same,Share of metabolite from the total combined metabolite peak area,[6]; SC83288 metabolites,0.6%
COC(=O)N1CCN(C(=N)c2cccc(NC(=O)Nc3ccc(S(N)(=O)=O)cc3)c2)CC1 [SC83288 M9],Share of metabolite from the total combined metabolite peak area,[2]; SC83288 metabolites,69.9%
same,Share of metabolite from the total combined metabolite peak area,[3]; SC83288 metabolites,82%
same,Share of metabolite from the total combined metabolite peak area,[4]; SC83288 metabolites,4.8%
same,Share of metabolite from the total combined metabolite peak area,[5]; SC83288 metabolites,72.3%
same,Share of metabolite from the total combined metabolite peak area,[6]; SC83288 metabolites,69%
CCC(=O)N1CCN(C(=N)c2cccc(NC(=O)Nc3ccc(S(=O)(=O)NCc4ccc(S(N)(=O)=O)cc4)cc3)c2)CC1 [SC83289],Solubility in H2O,Solubility in water,32 µg/mL
same,Papp,CACO 2 cells,1.70 10-6 cm s-1
same,IC50,P. falciparum strain Dd2; [10],1820 nM
N=C(c1cccc(NC(=O)Nc2ccc(S(=O)(=O)NCc3ccc(S(N)(=O)=O)cc3)cc2)c1)N1CCOCC1 [SC87507],Papp,CACO 2 cells,1.23 10-6 cm s-1
same,IC50,P. falciparum strain Dd2; [10],139 nM
"CCCCC[C@H](O)/C=C/[C@H]1[C@@H]2CO[C@@H](C2)[C@@H]1C/C=C\CCCC(=O)O [U 44069, reference compound]",IC50,TP (h) (TXA2/PGH2); [7],14 nM
same,Ki,TP (h) (TXA2/PGH2); [8],6.2 nM
N=C(c1cccc(NC(=O)Nc2ccc(S(N)(=O)=O)cc2)c1)N1CCNCC1 [metabolite 2],Share of metabolite from the total combined metabolite peak area,[3]; SC81458 metabolites,4.7%
same,Share of metabolite from the total combined metabolite peak area,[3]; SC83288 metabolites,0.3%
same,IC50,P. falciparum strain Dd2; [9],5000 nM
same,Share of metabolite from the total combined metabolite peak area,[4]; SC81458 metabolites,1.6%
same,Share of metabolite from the total combined metabolite peak area,[5]; SC81458 metabolites,7.6%
same,Share of metabolite from the total combined metabolite peak area,[5]; SC83288 metabolites,5.4%
same,Share of metabolite from the total combined metabolite peak area,[6]; SC81458 metabolites,0.3%
same,Share of metabolite from the total combined metabolite peak area,[6]; SC83288 metabolites,0.3%
"COc1cc2nc(N3CCN(C(=O)c4ccco4)CC3)nc(N)c2cc1OC [prazosin, reference compound]",IC50,a1 (non-selective); [7],0.82 nM
same,Ki,a1 (non-selective); [8],0.22 nM
"COc1ccc(C(=O)O[C@H]2CC[C@@]3(C)[C@@H]4CC[C@H]5[C@]6(O)C[C@H](O)[C@@]7(O)[C@@H](CN8C[C@@H](C)CC[C@H]8[C@@]7(C)O)[C@]6(O)C[C@@]53O[C@]24O)cc1OC [veratridine, reference compound]",IC50,Na+ channel (site 2); [7],10000 nM
same,Ki,Na+ channel (site 2); [8],9000 nM
"COC(=O)[C@@H]1[C@H]2C[C@H]3c4[nH]c5ccccc5c4CCN3C[C@@H]2CC[C@@H]1O [yohimbine, reference compound]",IC50,a2 (non-selective); [7],69 nM
same,Ki,a2 (non-selective); [8],30 nM
IL-8: control compound of the binding panel [reference compound],IC50,CXCR2 (IL-8B) (h); [7],0.063 nM
same,Ki,CXCR2 (IL-8B) (h); [8],0.029 nM
MIP-1a: control compound of the binding panel [reference compound],IC50,CCR1 (h); [7],0.06 nM
same,Ki,CCR1 (h); [8],0.03 nM
somatostatin-14: control compound of the binding panel [reference compound],IC50,sst (non-selective); [7],0.15 nM
same,Ki,sst (non-selective); [8],0.092 nM

# Reference: publication PMC5290327, “SC83288 is a clinical development candidate for the treatment of severe malaria” (Nature Communications, 2017)
